Experimental data from PMC6576746, “Rational discovery of dual-indication multi-target PDE/Kinase inhibitor for precision anti-cancer therapy using structural systems pharmacology” (PLoS Computational Biology, 2019).

How the values were obtained:
Assay in all cases: cells
Parameters in all cases: species or system panel of human cancer cell lines; Eurofins OncoPanel proliferation; nuclei count by high-content fluorescence imaging, 10-point dose response
NALM-6 = details: Homo sapiens, NALM-6, 72 h, cell count, 3 days
Summary of the method: (§1)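 Ten half-log concentrations from 100 μM (0.1% DMSO max) applied one day post-seeding, 3-day exposure at 37°C; untreated time-zero plate for GI50. Readout is nuclear cell count by automated fluorescence imaging, giving EC50, IC50, GI50 and 0–10 activity area.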

KG-1 = details: Homo sapiens, KG-1, 72 h, cell count, 3 days
Summary of the method: as §1

Caki-2 = details: Homo sapiens, CAKI-2, 72 h, cell count, 3 days
Summary of the method: as §1

Hs 229.T = details: 72 h, cell count, 3 days
Summary of the method: as §1

Hs 936.T(C1) = details: 72 h, cell count, 3 days
Summary of the method: as §1

HPAF-II = details: Homo sapiens, HPAF-II, 72 h, cell count, 3 days
Summary of the method: as §1

WiDr = details: Homo sapiens, WiDr, 72 h, cell count, 3 days
Summary of the method: as §1

HT = details: Homo sapiens, HT, 72 h, cell count, 3 days
Summary of the method: as §1

Hs 445 = details: Hs 445, 72 h, cell count, 3 days
Summary of the method: as §1

HT-29 = details: Homo sapiens, HT-29, 72 h, cell count, 3 days
Summary of the method: as §1

CCF-STTG1 = details: Homo sapiens, CCF-STTG1, 72 h, cell count, 3 days
Summary of the method: as §1

U2OS = details: Homo sapiens, U2OS, 72 h, cell count, 3 days
Summary of the method: as §1

NAMALWA = details: 72 h, cell count, 3 days
Summary of the method: as §1

SKO-007 = details: SKO-007, 72 h, cell count, 3 days
Summary of the method: as §1

[1] = 50% of maximum possible response

IC50 (HT-29; [1]): > 100 µM
GI50 (HT-29; corrected for time zero): 82.7 µM
EC50 (HT-29; curve inflection point): > 100 µM
IC50 (U2OS; [1]): 8.58 µM
GI50 (U2OS; corrected for time zero): 6.64 µM
EC50 (U2OS; curve inflection point): 7.6 µM
IC50 (SKO-007; [1]): 42 µM
GI50 (SKO-007; corrected for time zero): 22.3 µM
EC50 (SKO-007; curve inflection point): 42 µM
SMILES: C[C@@H]1CC(=O)NN=C1c1ccc(NN=C(C#N)C#N)cc1 [levosimendan]
IC50 (NALM-6; [1]): 30.8 µM
GI50 (NALM-6; corrected for time zero): 23.4 µM
EC50 (NALM-6; curve inflection point): 30.8 µM
IC50 (KG-1; [1]): 21.7 µM
GI50 (KG-1; corrected for time zero): 13.5 µM
EC50 (KG-1; curve inflection point): 19.2 µM
IC50 (Caki-2; [1]): > 100 µM
GI50 (Caki-2; corrected for time zero): > 100 µM
EC50 (Caki-2; curve inflection point): > 100 µM
IC50 (Hs 229.T; [1]): 100 µM
GI50 (Hs 229.T; corrected for time zero): 60.3 µM
EC50 (Hs 229.T; curve inflection point): 100 µM
IC50 (Hs 936.T(C1); [1]): > 100 µM
GI50 (Hs 936.T(C1); corrected for time zero): > 100 µM
EC50 (Hs 936.T(C1); curve inflection point): > 100 µM
IC50 (HPAF-II; [1]): 65.8 µM
GI50 (HPAF-II; corrected for time zero): 54 µM
EC50 (HPAF-II; curve inflection point): 65.8 µM
IC50 (WiDr; [1]): 77.6 µM
GI50 (WiDr; corrected for time zero): 70.6 µM
EC50 (WiDr; curve inflection point): 77.6 µM
IC50 (HT; [1]): 69.4 µM
GI50 (HT; corrected for time zero): 56.9 µM
EC50 (HT; curve inflection point): 69.4 µM
IC50 (Hs 445; [1]): 30.6 µM
GI50 (Hs 445; corrected for time zero): 21.8 µM
EC50 (Hs 445; curve inflection point): 26.3 µM
IC50 (CCF-STTG1; [1]): > 100 µM
GI50 (CCF-STTG1; corrected for time zero): > 100 µM
EC50 (CCF-STTG1; curve inflection point): > 100 µM
IC50 (NAMALWA; [1]): 12.5 µM
GI50 (NAMALWA; corrected for time zero): 11.3 µM
EC50 (NAMALWA; curve inflection point): 12.5 µM
